Like-named read-outs stand apart in the source and are kept apart here.
Columns and labels:
[1] = test system: BAD phosphorylation at Ser99; test: Western blot of BAD phosphorylation at Ser99 in TNBC cells; type: cell-based, human; details: MDA-MB-231 and BT549 cells; for level of pBADSer99/BAD: 1 μM
MDA-MB-231 xenografts [2] = test: Orthotopic xenograft, combination study; type: in vivo, BALB/c-nude mice; details: for cells of human origin in lung sections (IHC staining of human HPRT): MDA-MB-231-engrafted mice; for % Regression: Complete Response (100%) / % Regression: Partial Response (>50%) / % Regression: Disease Progression: MDA-MB-231 xenograft; for % Regression: Disease Progression: day 21 (xenograft volume >100 mm^3); for lung metastasis incidence (mice with detectable lung hHPRT mRNA, qPCR): n = 6, vehicle 3 out of 6
Method: (§1) In vivo bioluminescent imaging was performed to determine the incidence and metastatic burden of luciferase-labeled 4T1 cells. Mice were injected i.p. with 10 mg/ml of D-luciferin (Gold Biotechnology, MO, USA) and imaged using a PerkinElmer IVIS Spectrum system. PDX were generated as previously described by transplanting fresh fragments orthotopically into 8-week-old female nonobese diabetic (NOD)/severe combined immunodeficient (SCID) mice (Beijing Vital River Laboratory Animal Technology Co., Beijing, China) (P1, passage 1)[40]. The P1 xenografts were then fragmented, digested into single-cell suspension and implanted into mammary fat pad (100 μL PBS containing growth factor reduced 50% Matrigel) of NOD/SCID mice. Once orthotopic xenografts reached an approximate size of 100 mm^3, the mice were randomly divided into three groups (n = 8) for single drug studies and six groups (n = 6) for combination studies and Kaplan-Meier (KM) analyses. […] Animal body weight and xenograft size were measured daily using an electronic balance and a digital caliper, respectively. Xenograft volume (mm^3) was calculated by using the formula: 0.52 × length × [width]^2. Complete response (CR) was achieved if the average xenograft volume for the treatment group was unable to be determined for two or more consecutive measurements. Partial response (PR) was achieved if the average xenograft volume reduced to <50 mm^3 for two or more consecutive measurements. After 3-week drug treatment, all mice were sacrificed by CO2 inhalation. Tumor and vital organs were weighed and isolated for further analysis. IHC analysis of xenograft histology sections and quantitative polymerase chain reaction (qPCR) were performed as previously described.
Data represent means ± SD. *P < 0.05, **P < 0.01, and ***P < 0.001.
Data represent means ± SD (n=6). *P < 0.05, **P
< 0.01, and ***P < 0.001.
Abbreviations: ALT/GOT, alanine
aminotransferase/ glutamic oxaloacetic transaminase; AST/GPT, aspartate aminotransferase/
glutamic pyruvic transaminase; CREA, creatinine; UREA, urea; and ALB, albumin. Data
represent means ± SD. *P < 0.05, **P < 0.01, and ***P < 0.001.

[3] = test system: 4T1-luciferase homografts; test: Orthotopic syngeneic homograft, combination study; type: in vivo; details: BALB/c mice, day 16; NCK 20 mg/kg, OSI 50 mg/kg, CRI 50 mg/kg
Method: as §1, with “described. […]” for “described.”
model was measured every day and calculated by using the formula: 0.52 × length × [width]2.
The animal weight of each treatment group is indicated. […]
treatment group after sacrifice on the 15th day of treatment. (C) Bioluminescence of homografts from mice orthotopically implanted with 4T1-luciferase cells. (D) Resected homografts from each treatment group.
(F) Histological analyses and IRS scoring of pBAD at Ser99, BAD, MKI67, and TUNEL staining in homografts. Scale bar, 20 µm. […]
kidney weights (%, organ body index) and colon length of BALB/c mice administrated with […]
represent means ± SD ( n=6).*P < 0.05, **P < 0.01, and ***P < 0.001.

[4] = test system: MAPK and PI3K/AKT pathways; test: Western blot of PI3K/AKT and MAPK pathway proteins; type: cell-based, human
Method: Next, western blot analyses were performed to determine potential alteration in expression or activity of the target proteins along the MAPK and PI3K/AKT pathways. […] . […] CI analysis method.

MDA-MB-231 cells [5] = test system: MDA-MB-231 cells
MDA-MB-231 xenografts [6] = test: Orthotopic xenograft, combination study; type: in vivo; details: Balb/c-nude mice, day 22; NCK 20 mg/kg, OSI 50 mg/kg, CRI 50 mg/kg
MDA-MB-231 cells [7] = test: Foci formation (crystal violet); details: MDA-MB-231, 5 μM each
BT549 cells = test: Foci formation (crystal violet); details: BT549, 5 μM each
[8] = serum, NCK 20 mg/kg, OSI 50 mg/kg, CRI 50 mg/kg
[9] = Balb/c-nude mice, day 22, NCK 20 mg/kg, OSI 50 mg/kg, CRI 50 mg/kg
[10] = day 21, NCK 20 mg/kg q.d., OSI-930 20 mg/kg q.d., Crizotinib 50 mg/kg b.i.w.

## O=C(Nc1ccc(OC(F)(F)F)cc1)c1sccc1NCc1ccnc2ccccc12 [OSI-930]
[1]
  level of pBADSer99/BAD: significantly decreased the level of pBADSer99/BAD
MDA-MB-231 xenografts [2]
  cells of human origin in lung sections (IHC staining of human HPRT): not in the lung sections
  % Regression: Disease Progression: 67%
  lung metastasis incidence (mice with detectable lung hHPRT mRNA, qPCR): none of the mice had lung metastasis
MDA-MB-231 xenografts [2]; day 21
  % Regression: Complete Response (100%): 0%
  % Regression: Partial Response (>50%): 33%
MDA-MB-231 xenografts [2]; [8]
  ALB: 30.61 ± 0.84 g/L
  ALT/GOT: 81.99±27.99 U/L
  AST/GPT: 298.22±75.62 U/L
  UREA: 12.36 ± 6.01 mmol/L
[3]
  Colon Length: 9.33±1.26 cm
  Relative Kidney Weight: 1.34±0.02%
[4]; BT549, 1 μM
  phosphorylated and total proteins of MAPK and PI3K/AKT pathways: significantly reduced the level of p-AKT (Ser473)/AKT
[4]; MDA-MB-231, 1 μM
  phosphorylated and total proteins of MAPK and PI3K/AKT pathways: significantly inhibited the PI3K/AKT pathway
MDA-MB-231 cells [5]; MDA-MB-231 metastasis model
  micro-metastatic nodules in lung (H&E) vs vehicle: significantly reduced lung colonization
MDA-MB-231 xenografts [6]
  Colon Length: 9.34±0.67 cm
MDA-MB-231 cells [7]
  2D foci formation: significantly attenuated the capacity for foci formation
BT549 cells
  2D foci formation: significantly attenuated the capacity for foci formation

## Oc1ccccc1C(c1cccnc1)N1CCN(c2cccc(Cl)c2Cl)CC1 (stereo not shown) [NCK, 2-((4-(2,3-dichlorophenyl)piperazin-1-yl)(pyridin-3-yl)methyl) phenol]
[1]
  level of pBADSer99/BAD: significantly decreased the level of pBADSer99/BAD
[1]; vs DMSO
  inhibition of BAD phosphorylation at Ser99 (decreased pBADSer99/BAD ratio), effective concentration: ≥ 0.1 μM
MDA-MB-231 xenografts [2]; [9]
  Relative Heart Weight: 0.74±0.16%
  Relative Kidney Weight: 1.60±0.14%
  Relative Lung Weight: 2.39±0.57%
  Relative Spleen Weight: 0.77±0.14%
MDA-MB-231 xenografts [2]
  cells of human origin in lung sections (IHC staining of human HPRT): not in the lung sections
  % Regression: Disease Progression: 50%
  lung metastasis incidence (mice with detectable lung hHPRT mRNA, qPCR): 1/6
MDA-MB-231 xenografts [2]; day 21
  % Regression: Complete Response (100%): 33%
  % Regression: Partial Response (>50%): 17%
MDA-MB-231 xenografts [2]; NCK 20 mg/kg q.d.
  MKI67 positivity in xenograft vs vehicle: significantly reduced MKI67 positivity
  TUNEL scores in xenograft vs vehicle: increased TUNEL scores
  level of pBADSer99 in resected xenograft vs vehicle: reduced the level of pBADSer99
MDA-MB-231 xenografts [2]; [10]
  complete regression of xenografts: 33.33%
  complete regression of xenografts (number of xenografts): 2/6
MDA-MB-231 xenografts [2]; [8]
  ALB: 28.48 ± 3.45 g/L
  ALT/GOT: 75.66±23.55 U/L
  AST/GPT: 296.04±102.48 U/L
  CREA: 23.49 ± 3.02 µmol/L
  UREA: 14.01 ± 3.33 mmol/L
[3]
  Colon Length: 9.02±1.54 cm
  Relative Heart Weight: 0.61±0.11%
  Relative Kidney Weight: 1.40±0.16%
  Relative Liver Weight: 4.98±0.21%
  Relative Lung Weight: 0.87±0.11%
  Relative Spleen Weight: 2.24±0.40%
[4]; BT549, 1 μM
  phosphorylated and total proteins of MAPK and PI3K/AKT pathways: did not affect
[4]; MDA-MB-231, 1 μM
  phosphorylated and total proteins of MAPK and PI3K/AKT pathways: did not affect
MDA-MB-231 cells [5]; [9]
  Relative Heart Weight: 0.66±0.08%
  Relative Kidney Weight: 1.72±0.18%
  Relative Liver Weight: 6.57±0.93%
  Relative Lung Weight: 0.82±0.05%
  Relative Spleen Weight: 0.75±0.13%
MDA-MB-231 cells [5]; MDA-MB-231 metastasis model
  micro-metastatic nodules in lung (H&E) vs vehicle: significantly reduced lung colonization
MDA-MB-231 cells [5]; MDA-MB-231 metastasis model, vehicle 0.19 ± 0.02 g
  Relative Lung Weight: 0.17 ± 0.01 g
MDA-MB-231 xenografts [6]
  Colon Length: 9.55±0.84 cm
  Relative Liver Weight: 5.70±0.38%
MDA-MB-231 cells [7]
  2D foci formation: significantly attenuated the capacity for foci formation
BT549 cells
  2D foci formation: significantly attenuated the capacity for foci formation

Source: article PMC10781691, “Vertical pathway inhibition of receptor tyrosine kinases and BAD with synergistic efficacy in triple negative breast cancer” (NPJ Precision Oncology, 2024)
